Test results reported in ChEMBL document CHEMBL5729309, “Substituted pyrimidines, pharmaceutical compositions and therapeutic methods thereof” (2022).

Columns and labels:
[1] = target: T1, Tyrosine-protein kinase ITK/TSK (Homo sapiens, UniProt Q08881)
T1 sequence (Q08881 whole entry): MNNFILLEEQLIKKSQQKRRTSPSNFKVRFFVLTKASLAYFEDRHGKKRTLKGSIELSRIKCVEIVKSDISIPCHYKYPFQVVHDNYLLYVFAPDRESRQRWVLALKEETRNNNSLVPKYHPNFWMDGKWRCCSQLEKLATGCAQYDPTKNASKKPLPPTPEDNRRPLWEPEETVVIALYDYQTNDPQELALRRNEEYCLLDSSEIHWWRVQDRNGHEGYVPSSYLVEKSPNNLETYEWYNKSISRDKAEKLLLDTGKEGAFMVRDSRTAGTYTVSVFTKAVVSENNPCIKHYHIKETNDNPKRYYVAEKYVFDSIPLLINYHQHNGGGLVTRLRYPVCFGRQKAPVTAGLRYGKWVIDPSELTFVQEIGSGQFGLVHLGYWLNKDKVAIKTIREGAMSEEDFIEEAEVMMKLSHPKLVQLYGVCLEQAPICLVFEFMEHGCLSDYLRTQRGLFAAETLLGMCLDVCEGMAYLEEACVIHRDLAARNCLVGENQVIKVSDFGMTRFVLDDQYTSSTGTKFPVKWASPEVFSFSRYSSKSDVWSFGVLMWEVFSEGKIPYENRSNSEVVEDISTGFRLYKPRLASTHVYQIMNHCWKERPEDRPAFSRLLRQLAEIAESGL

Focal adhesion kinase 1 = Focal adhesion kinase 1 (Homo sapiens, UniProt Q05397)
[2] = target: Epidermal growth factor receptor (Homo sapiens, UniProt P00533)
[3] = target: T2, Cytoplasmic tyrosine-protein kinase BMX (Homo sapiens, UniProt P51813)
T2 sequence (P51813 whole entry): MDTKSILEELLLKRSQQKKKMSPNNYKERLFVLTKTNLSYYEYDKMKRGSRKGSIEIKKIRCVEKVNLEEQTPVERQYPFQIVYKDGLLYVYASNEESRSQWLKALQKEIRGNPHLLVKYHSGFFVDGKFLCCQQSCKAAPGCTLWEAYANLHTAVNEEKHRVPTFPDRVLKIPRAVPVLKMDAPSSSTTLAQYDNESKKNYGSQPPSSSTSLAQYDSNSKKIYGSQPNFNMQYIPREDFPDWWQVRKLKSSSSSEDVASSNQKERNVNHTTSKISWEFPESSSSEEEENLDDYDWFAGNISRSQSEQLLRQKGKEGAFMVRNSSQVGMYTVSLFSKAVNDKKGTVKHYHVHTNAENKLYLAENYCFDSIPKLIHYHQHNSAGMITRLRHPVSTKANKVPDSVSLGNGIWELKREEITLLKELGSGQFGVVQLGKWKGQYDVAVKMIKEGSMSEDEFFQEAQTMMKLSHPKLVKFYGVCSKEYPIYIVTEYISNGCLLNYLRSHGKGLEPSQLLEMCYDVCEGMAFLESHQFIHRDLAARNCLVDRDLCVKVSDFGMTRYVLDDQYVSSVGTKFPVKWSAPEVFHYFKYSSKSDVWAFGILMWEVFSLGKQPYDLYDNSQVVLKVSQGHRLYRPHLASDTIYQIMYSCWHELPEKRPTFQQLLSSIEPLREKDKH

Epidermal growth factor receptor, sequence (P00533 whole entry): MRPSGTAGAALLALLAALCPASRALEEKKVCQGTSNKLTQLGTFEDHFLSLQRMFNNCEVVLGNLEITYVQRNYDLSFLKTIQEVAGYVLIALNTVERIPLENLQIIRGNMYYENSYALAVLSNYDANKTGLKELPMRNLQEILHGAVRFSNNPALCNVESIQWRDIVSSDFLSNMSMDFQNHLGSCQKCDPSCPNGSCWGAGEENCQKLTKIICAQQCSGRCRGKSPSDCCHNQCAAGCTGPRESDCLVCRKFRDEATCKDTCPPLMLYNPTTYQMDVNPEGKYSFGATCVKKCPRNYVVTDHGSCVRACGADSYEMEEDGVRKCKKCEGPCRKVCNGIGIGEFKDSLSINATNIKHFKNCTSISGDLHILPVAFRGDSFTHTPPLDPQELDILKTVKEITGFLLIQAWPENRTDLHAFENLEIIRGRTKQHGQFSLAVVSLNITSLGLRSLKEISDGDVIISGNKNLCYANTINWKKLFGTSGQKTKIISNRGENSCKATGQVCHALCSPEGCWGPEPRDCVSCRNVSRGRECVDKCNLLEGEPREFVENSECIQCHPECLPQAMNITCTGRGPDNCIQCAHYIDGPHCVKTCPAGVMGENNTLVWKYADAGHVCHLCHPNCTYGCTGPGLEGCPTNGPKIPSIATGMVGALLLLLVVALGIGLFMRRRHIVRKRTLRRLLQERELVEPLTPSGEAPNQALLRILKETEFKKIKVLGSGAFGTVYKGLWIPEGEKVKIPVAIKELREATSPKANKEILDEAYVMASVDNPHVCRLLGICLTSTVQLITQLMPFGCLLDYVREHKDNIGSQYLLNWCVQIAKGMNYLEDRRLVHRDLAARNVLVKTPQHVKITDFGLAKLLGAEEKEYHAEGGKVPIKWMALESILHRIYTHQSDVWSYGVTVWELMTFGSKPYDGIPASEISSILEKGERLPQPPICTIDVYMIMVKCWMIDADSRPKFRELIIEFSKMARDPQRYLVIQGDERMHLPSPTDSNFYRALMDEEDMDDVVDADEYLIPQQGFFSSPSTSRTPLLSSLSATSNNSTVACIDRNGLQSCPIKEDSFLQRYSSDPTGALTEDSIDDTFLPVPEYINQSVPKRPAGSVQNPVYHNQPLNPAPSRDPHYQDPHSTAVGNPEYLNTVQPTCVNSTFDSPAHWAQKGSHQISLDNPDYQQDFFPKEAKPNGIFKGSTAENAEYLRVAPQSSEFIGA
Focal adhesion kinase 1, sequence (Q05397 whole entry): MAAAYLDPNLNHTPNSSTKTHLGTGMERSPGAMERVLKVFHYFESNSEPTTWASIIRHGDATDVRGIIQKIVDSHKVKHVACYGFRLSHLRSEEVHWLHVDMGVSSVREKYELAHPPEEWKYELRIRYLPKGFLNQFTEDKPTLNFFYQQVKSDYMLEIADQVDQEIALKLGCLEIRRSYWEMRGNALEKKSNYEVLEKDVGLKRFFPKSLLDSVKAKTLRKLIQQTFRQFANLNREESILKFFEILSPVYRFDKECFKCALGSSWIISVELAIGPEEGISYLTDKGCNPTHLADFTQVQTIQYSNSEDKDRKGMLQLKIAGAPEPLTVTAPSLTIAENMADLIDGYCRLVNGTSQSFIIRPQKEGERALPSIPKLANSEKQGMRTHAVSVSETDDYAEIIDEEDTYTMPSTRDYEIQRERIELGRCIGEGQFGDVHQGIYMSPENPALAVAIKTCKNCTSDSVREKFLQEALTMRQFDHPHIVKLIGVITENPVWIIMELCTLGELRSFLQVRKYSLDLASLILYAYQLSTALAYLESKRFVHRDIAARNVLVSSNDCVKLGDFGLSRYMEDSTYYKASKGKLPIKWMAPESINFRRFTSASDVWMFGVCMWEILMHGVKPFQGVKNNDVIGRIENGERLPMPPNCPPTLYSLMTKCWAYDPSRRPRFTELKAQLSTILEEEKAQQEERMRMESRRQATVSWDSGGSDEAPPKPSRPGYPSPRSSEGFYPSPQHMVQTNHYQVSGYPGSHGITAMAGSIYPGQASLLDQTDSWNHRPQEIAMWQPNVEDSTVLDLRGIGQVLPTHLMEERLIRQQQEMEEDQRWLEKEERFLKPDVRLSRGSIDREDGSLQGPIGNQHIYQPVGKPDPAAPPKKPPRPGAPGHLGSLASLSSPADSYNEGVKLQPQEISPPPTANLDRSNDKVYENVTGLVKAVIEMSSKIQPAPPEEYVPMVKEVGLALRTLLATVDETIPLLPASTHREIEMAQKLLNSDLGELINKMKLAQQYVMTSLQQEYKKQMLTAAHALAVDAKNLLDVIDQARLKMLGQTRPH

Row | Compound | IC50 [1] [nM] | IC50 (Focal adhesion kinase 1) [nM] | IC50 [2] [nM] | IC50 [3] [nM]
1 | C=CC(=O)N1CCC[C@@H](Nc2nc(Nc3ccc(OCCCOC4(CC)OCC(C)(C)CO4)cc3)ncc2F)C1 | > 100 | > 100 | > 100 | < 100
2 | C=CC(=O)Nc1ccccc1Nc1nc(Nc2ccc(OCCCOC3(CC)OCC(C)(C)CO3)cc2)ncc1F | > 100 | > 100 | > 100 | > 100
